From US20220241223A1, “USE OF DISULFIRAM OR ITS DERIVATIVES FOR THE TREATMENT OF MITOCHONDRIAL DISEASES OR DYSFUNCTION” (Universite D'angers, priority 2019, published 2022)

Test system: SHY1 Mutation G137R (shy1) yeast strain
Assay: Halo test of growth on respiratory medium
Assay type: cell-based, Saccharomyces cerevisiae
Details: FIG. 1B; shy1 mutant strain; 10 and 30 nmoles on filter
Procedure: Each of the various Saccharomyces cerevisiae yeast strains used in examples 1 to 3 contain different specific mutations modeling human mutations resulting in mitochondrial diseases. At different extents, all these yeast strains present growth defect when grown on respiratory medium such as ethanol or glycerol at 28° C. or 36° C. (depending on the strain). […]
More precisely, 200 μL of the various yeast mutant strain grown in liquid YPD rich fermentable medium (1% Yeast Extract, 0.5% Bacto Peptone, 2% Glucose) at 0.4 OD600 were spread on agar-based solid respiratory medium: either YPG (1% Yeast Extract, 0.5% Bacto Peptone, 2% glycerol) or YPE (1% Yeast Extract, 0.5% Bacto Peptone, 2% ethanol). Small sterile filters were then placed on the agar surface and increasing concentrations of DSF were added to the filters at the indicated quantities. […]

CCN(CC)C(=S)S.[Na+] [DEDTC, Sodium diethyldithiocarbamate]
effect on growth defect on non-fermentable (respiratory) medium: similarly suppresses the growth defect
